Test systems include A498; ACHN; CCRF-CEM; COLO 205; HCC 2998; HL-60; HT-29; IGROV-1; K562; M14; MCF7; MDA-MB-231; MOLT-4; NCI-H226; NCI-H522; OVCAR-3; OVCAR-4; SF-295; SK-MEL-2; SR.
Holding throughout (assay): inhibition of tumour cell growth, NCI panel, 48 h

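Values below derive from 48-hour exposures of cells grown in 96-well plates, with endpoints linearly interpolated between the two concentrations bracketing the appropriate inhibition level. At the GI50, growth is halved.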 Calls of active or inactive are those of the source. Cut-off read from the data, not from the text of the source: active = GI50 up to about 1.1 µM and inactive = higher.

Take `CC(=O)O[C@H]1[C@@H](OC2CCCC2(c2ccccc2)c2ccccc2)O[N+]([O-])=C[C@@H]1c1ccccc1` (stereo not given in full): the GI50 with A498 was 8.22 µM (inactive); in the experiment on ACHN, 5.07 µM (inactive); with CCRF-CEM, 3.19 µM (inactive); in the experiment with COLO 205 it was 14.6 µM (inactive); in the experiment on HCC 2998 it was 10.4 µM (inactive); in the experiment with HL-60, 2.01 µM (inactive). Also, the GI50 is 2.51 µM (inactive) in the experiment on HT-29; 2.79 µM (inactive) in the experiment with IGROV-1; 4.41 µM (inactive) in the experiment with K562; 6.18 µM (inactive) with M14; 3.48 µM (inactive) in the experiment with MCF7; 12.6 µM (inactive) with MDA-MB-231. For the same molecule, the GI50 in the experiment with MOLT-4 was 2.63 µM (inactive); in the experiment on NCI-H226 it was 20.7 µM (inactive); in the experiment on NCI-H522, 1.26 µM (inactive); with OVCAR-3 it was 8.87 µM (inactive); in the experiment with OVCAR-4 it was 6.46 µM (inactive); in the experiment on SF-295, 8.13 µM (inactive). Further, the GI50 was 8.57 µM (inactive) in the experiment with SK-MEL-2 and 2.4 µM (inactive) with SR.

On to `N#CC1=C(N)N2C(=O)/C(=C/c3ccccc3O)N=C2S1`, for which the GI50 in the experiment on A498 was > 100 µM (inactive); in the experiment on ACHN, > 100 µM (inactive); in the experiment with CCRF-CEM, 26.4 µM (inactive); in the experiment on COLO 205, > 100 µM (inactive); in the experiment on HCC 2998, 92.9 µM (inactive); in the experiment with HL-60, 20.8 µM (inactive). The GI50 with HT-29 was 37.7 µM (inactive); in the experiment on IGROV-1, 29.8 µM (inactive); in the experiment with K562, 26.1 µM (inactive); in the experiment with M14, 49.9 µM (inactive); in the experiment on MCF7 it was 48.1 µM (inactive); in the experiment on MDA-MB-231, > 100 µM (inactive). Further, the GI50 with MOLT-4 is 18.5 µM (inactive); with NCI-H226 it was > 100 µM (inactive); in the experiment on NCI-H522, 47.8 µM (inactive); in the experiment with OVCAR-3, 66.2 µM (inactive); in the experiment on OVCAR-4 it was 44.5 µM (inactive); in the experiment on SF-295 it was > 100 µM (inactive). For the same molecule, the results for the GI50 in the experiment with SK-MEL-2 and in the experiment on SR were > 100 µM (inactive) and 23.6 µM (inactive), respectively.

For `CN(/N=C/c1ccccc1C(=O)O)C1=NCCCCN1`, the GI50 with A498, with ACHN, in the experiment on CCRF-CEM, in the experiment on COLO 205, in the experiment on HCC 2998 and in the experiment with HL-60 was > 100 µM (inactive) in each case. Moreover, the GI50 in the experiment with HT-29, in the experiment on IGROV-1, in the experiment on K562, in the experiment on M14, with MCF7 and in the experiment with MDA-MB-231 was > 100 µM (inactive) in each case. For the same molecule, the GI50 was > 100 µM (inactive) with MOLT-4; > 100 µM (inactive) with NCI-H226; 19.1 µM (inactive) in the experiment with NCI-H522; > 100 µM (inactive) in the experiment on OVCAR-3; > 100 µM (inactive) in the experiment on OVCAR-4; > 100 µM (inactive) with SF-295. Further, the GI50 in the experiment with SK-MEL-2 and with SR was > 100 µM (inactive) throughout.

Regarding `C=C1C(=O)O[C@@H]2/C=C(/C)[C@@H](OC(C)=O)C[C@@H](O)/C(C)=C\[C@@H](OC(=O)[C@]3(C)O[C@@H]3C)[C@@H]12`, the GI50 in the experiment on A498 is 18.1 µM (inactive); in the experiment on ACHN, 11.8 µM (inactive); in the experiment with CCRF-CEM, 2.38 µM (inactive); with COLO 205 it was 6.89 µM (inactive); in the experiment on HCC 2998 it was 18.2 µM (inactive); in the experiment with HL-60 it was 2.39 µM (inactive). For the same molecule, the GI50 in the experiment with HT-29 was 15.8 µM (inactive); in the experiment on IGROV-1 it was 16.2 µM (inactive); in the experiment on K562, 3.34 µM (inactive); with M14, 12.5 µM (inactive); with MCF7, 5.79 µM (inactive); with MDA-MB-231, 16.3 µM (inactive). Further, the GI50 in the experiment on MOLT-4 was 3.91 µM (inactive); in the experiment on NCI-H226, 40.4 µM (inactive); in the experiment on NCI-H522, 1.28 µM (inactive); with OVCAR-3, 11.6 µM (inactive); in the experiment on OVCAR-4, 21.9 µM (inactive); in the experiment on SF-295, 50.9 µM (inactive). The GI50 was 17.2 µM (inactive) with SK-MEL-2 and 4.6 µM (inactive) in the experiment with SR.

In the case of `C[C@@H]1C[C@H](O)[C@]2(O)O[C@@H]3C[C@@]4(C=O)[C@@H](CC[C@@H]5[C@@H]4CC[C@]4(C)[C@@H](C6=CC(=O)OC6)CC[C@]54O)C[C@H]3O[C@@H]2O1` [CALOTROPIN], the GI50 in the experiment with A498 is 0.0531 µM (active); in the experiment on ACHN it was 0.0188 µM (active); in the experiment on CCRF-CEM, 0.0175 µM (active); in the experiment with COLO 205 it was 0.0726 µM (active); with HCC 2998 it was 0.0593 µM (active); with HL-60 it was 0.0397 µM (active). Besides, the GI50 was 0.0425 µM (active) with HT-29; 0.0209 µM (active) in the experiment on IGROV-1; 0.0365 µM (active) with K562; 0.065 µM (active) with M14; 0.0238 µM (active) in the experiment with MCF7; 0.221 µM (active) in the experiment on MDA-MB-231. In addition, the GI50 in the experiment with MOLT-4 was 0.0163 µM (active); in the experiment with NCI-H226, 0.0815 µM (active); in the experiment on NCI-H522 it was 0.0162 µM (active); in the experiment on OVCAR-3, 0.0182 µM (active); in the experiment with OVCAR-4, 0.0179 µM (active); in the experiment on SF-295 it was 0.0372 µM (active). The results for the GI50 in the experiment with SK-MEL-2 and in the experiment on SR were 0.0436 µM (active) and 0.0181 µM (active), respectively.

The values above are taken from ChEMBL document CHEMBL1201862, “PubChem BioAssay data set” (2004).
